Test results published in patent US11713470B2, “Targeted gene therapies for pain and other neuro-related disorders” (University of Pittsburgh—Of the Commonwealth System of …, priority 2017, dated 2023).

Assays:
[1] = target: T1, PSAM-GlyR in CCK^+ dorsal horn neurons (Homo sapiens, UniProt P23415+P36544, L141F); type: in vivo, mouse; conditions: CCK^Cre mice with PSAM-GlyR
T1 construct: plasmid from Addgene (Sternson); host or cells: mouse dorsal horn neurons transduced with Cre-dependent AAV2/8 (Tlx3^Cre, CCK^Cre or Calr^Cre mice)
T1 sequence (P36544+P23415 fused P36544:L141F): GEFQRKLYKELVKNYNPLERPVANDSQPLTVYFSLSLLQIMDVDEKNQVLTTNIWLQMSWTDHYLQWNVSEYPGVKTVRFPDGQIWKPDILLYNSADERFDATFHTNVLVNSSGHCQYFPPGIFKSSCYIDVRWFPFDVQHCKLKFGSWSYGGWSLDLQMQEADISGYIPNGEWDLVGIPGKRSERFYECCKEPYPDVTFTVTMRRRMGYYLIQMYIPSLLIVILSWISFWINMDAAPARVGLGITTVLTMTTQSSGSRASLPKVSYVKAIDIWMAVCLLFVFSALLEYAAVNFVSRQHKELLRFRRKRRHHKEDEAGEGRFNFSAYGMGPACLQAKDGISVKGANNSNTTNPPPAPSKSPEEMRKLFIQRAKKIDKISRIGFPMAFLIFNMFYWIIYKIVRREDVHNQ
Description: Methods. Animals: All animals were kept on a standard 12:12 light/dark cycle in micro-isolator caging racks (Allentown Caging) with food and water provided ad libitum. Mouse strains obtained from Jackson Laboratories include C57Bl/6J (JAX #000664), Calr^Cre (JAX #010774) and CCK^Cre (JAX #012706). Adeno-associated viruses (AAV2/8) used in these experiments: hSyn-Flex-rev-PSAM^L141F-GlyR-IRES-eGFP (7^12 vg/ml) and hSyn-Flex-rev-PSAM^L141F,Y115F-GlyR-IRES-eGFP (1.7^13 vg/ml) were custom made by UNC Vector core based on plasmid material developed by Scott Sternson and provided by Addgene. The hSyn-Flex-rev-PSAM^L141F-GlyR-IRES-eGFP (7^12 vg/ml) was used in all experiments except FIG. 8 (e,f). For these experiments, hSyn-Flex-rev-PSAM^L141F,Y115F-GlyR-IRES-eGFP (1.7^13 vg/ml) was used. Methods including: intra-spinal virus injections, paw withdrawal threshold to von Frey filaments, to cotton swab, Hargreaves, pinprick and acute pain behaviors licking, guarding, flicking are all as previously described (Peirs, C. et al. Dorsal Horn Circuits for Persistent Mechanical Pain. Neuron 87, 797-812 (2015); Seal, R. P. et al. Injury-induced mechanical hypersensitivity requires C-low threshold mechanoreceptors. Nature 462, 651-655, (2009)); For paw withdrawal threshold to pressure: mice were lightly restrained by hand such that their rear legs were allowed to freely hang. Using a Pressure Application Measurement device (Ugo Basile) the hind paw was grasped between the experimenter's forefinger and thumb (with pressure transducer on the thumb), and force was slowly applied to the paw until the mouse struggled or flicked its limb (paw withdrawal threshold, PWT). The final force in grams was recorded. Each mouse was tested on the left and right paw for three trials with a ten-minute inter-trial interval between applications, and the three results averaged for each paw. Injury Models including incision, complete Freund's adjuvant, spared nerve injury tibial and sural models, carrageenan, methylglyoxal and multi-dose streptozotocin are as previously described (Peirs, C. et al. Dorsal Horn Circuits for Persistent Mechanical Pain. Neuron 87, 797-812 (2015); Seal, R. P. et al. Injury-induced mechanical hypersensitivity requires C-low threshold mechanoreceptors. Nature 462, 651-655, (2009); Decosterd, I. and Woolf, C. J. Spared nerve injury: an animal model of persistent peripheral neuropathic pain. Pain 87, 149-158 (2000); Bierhaus, A. et al. Methylglyoxal modification of Nav1.8 facilitates nociceptive neuron firing and causes hyperalgesia in diabetic neuropathy. Nat Med 18, 926-933 (2012); Cavanaugh, D. J. et al. Distinct subsets of unmyelinated primary sensory fibers mediate behavioral responses to noxious thermal and mechanical stimuli. Proc Natl Acad Sci USA 106, 9075-9080, (2009)). Chemogenetic Activation of PSAM-GlyR Receptor: Behavior thresholds were performed as described above in AAV8-hSyn-DIO-PSAM-GlyR-IRES-GFP injected mice. PSEM^89S at 30 mg/kg was injected intraperitoneally 15 minutes prior to testing. Immunohistochemistry was performed as previously described (Peirs, C. et al. Dorsal Horn Circuits for Persistent Mechanical Pain. Neuron 87, 797-812 (2015); Seal, R. P. et al. Injury-induced mechanical hypersensitivity requires C-low threshold mechanoreceptors. Nature 462, 651-655 (2009)). α-bungarotoxin conjugated to Alexa-647 (1:1000; ThermoFisher B35450), α-bungarotoxin conjugated to Alexa-488 (1:1000; ThermoFisher B13422). Imaging: Spinal cord sections were imaged with a confocal laser-scanning microscope (Nikon A1R) and Nikon Elements software using 405-, 488-, 561- and 640 nm excitation laser light. In order to suppress emission crosstalk, the microscope was configured to perform all scanning in sequential mode. Z-series were scanned at 20× magnification with an oil immersion lens and a z-step of 5.0 μm. Quantification and Statistical Analysis: all data are reported as mean±SEM. For acute behaviors, a two-tailed Student's t-test was used. […]

PSAM-GlyR = target: T2, PSAM-GlyR (Homo sapiens, UniProt P23415+P36544, L141F); test: Patch clamp electrophysiology in spinal cord slices of Tlx3^Cre mice injected with AAV8-Flex-PSAM-GlyR; type: tissue-based, mouse
T2 construct: plasmid from Addgene (Sternson); host or cells: mouse dorsal horn neurons transduced with Cre-dependent AAV2/8 (Tlx3^Cre, CCK^Cre or Calr^Cre mice)
T2 sequence (P36544+P23415 fused P36544:L141F): as above
Experimental: FIGS. 6A and 6B. Positive and negative controls for PSAM-GlyR and PSEM^89S. (a) Schematic of PSAM-GlyR construct with GFP reporter used to make AAV8-hSyn-Flex-PSAM-GlyR. Virus was injected into Tlx3^Cre mice for electrophysiological slice recordings. (b) Electrode impaling a GFP^+ cell (also shown as DI, image) in a transverse slice of the dorsal horn from a Tlx3^Cre mouse injected with AAV8-hSyn-Flex-PSAMGlyR virus. […] (e) Control for the specificity of α-BTX-Alexa647. Contralateral dorsal horn lacks staining for α-BTX-Alexa647. Calretinin (green in original); PKCγ. Scale bar=50 μm. Box indicates area of inset. (f) In mice lacking PSAM-GlyR, mechanical allodynia and heat hypersensitivity induced by the carrageenan pain model are not altered by injection of PSEM^89S (30 mg/kg, i.p.) (p>0.999, n=4) (g) Punctate and dynamic allodynia induced by CFA are also not altered by injection of PSEM^89S (p>0.999, n=6). (h) In the mice lacking PSAM-GlyR, punctate and dynamic allodynia induced by the sural-SNI model are not altered by injection of PSEM^89S (30 mg/kg, i.p.) ([…], n=6). Data are mean±standard error of the mean (SEM). ***P<0.001; ns=not significant (i.e. p>0.05)
Prior to assessing the role of the neurons in somatosensory behavior, the ability of PSAM-GlyR to inhibit excitatory interneurons in the dorsal horn was tested using electrophysiological recordings in spinal cord slices. AAV8-Flex-PSAM-GlyR was injected intraspinally into the dorsal horn of P16 Tlx3^Cre mice. In this mouse line, the recombinase is strictly expressed by excitatory neurons located throughout laminae I-III. Three weeks later, neuronal excitability was measured using patch clamp electrophysiology in spinal cord slices in the presence and absence of PSEM^89S (FIG. 6(a-d)). To identify PSAM-GlyR^+ neurons, we identified cells expressing green fluorescent protein (GFP), which is also encoded by the PSAM-GlyR viral construct (FIG. 6(a,b)). […] We also tested the effect of the ligand PSEM^89S on pain behavior in mice lacking the receptor (FIG. 6(f,h)).

COc1ccc(OC)c(C(=O)NC2CN3CCC2CC3)c1 (stereo not drawn) [PSEM^89S]
performance on the rotarod [1]: not altered | baseline von Frey threshold ([1]; 30 mg/kg i.p., p=0.2192): no effect | baseline pinprick ([1]; p=0.5983): no effect | baseline response to cotton swab ([1]; p=0.7293): no effect | baseline pressure with calibrated calipers ([1]; p=0.7450): no effect | baseline Hargreaves latencies ([1]; p=0.9746): unchanged | decrease of membrane potential (PSAM-GlyR; 30 μM PSEM^89S applied to spinal cord slices, GFP^+ neurons, n=3 cells from 2 mice): −7.3±3.4 mV | action potentials generated by current injection (PSAM-GlyR; 30 μM, GFP^+ cells): completely blocked | hyperpolarization on bath application (PSAM-GlyR; 30 μM, specifically in GFP-expressing cells): sustained hyperpolarization
